This is an account of results in publication PMC8634379, “From the Design to the In Vivo Evaluation of Benzohomoadamantane-Derived Soluble Epoxide Hydrolase Inhibitors for the Treatment of Acute Pancreatitis” (Journal of Medicinal Chemistry, 2021).

SMILES strings stand for the structures.

Series [1] addresses CYP 3A4 (Homo sapiens, UniProt P08684). The experiment in a line: Cytochrome P450 inhibition, fluorescence detection. The format is in vitro ADME. The conditions noted are these: at 10 μM; for CYP 3A4 (BFC) inhibition: substrate benzyloxytrifluoromethylcoumarin; for CYP 3A4 (DBF) inhibition: substrate dibenzylfluorescein. As for the experimental part: The objective of this study was to screen the inhibition potential of the compounds using recombinant human cytochrome P450 enzymes CYP3A4 (BFC and DBF substrates) and probe substrates with fluorescent detection. Incubations were conducted in a 200 μL volume in 96-well microtiter plates (COSTAR 3915). The addition of the mixture buffer-cofactor (KH2PO4 buffer, 1.3 mM NADP, 3.3 mM MgCl2, 0.4 U/mL glucose-6-phosphate dehydrogenase), control supersomes, the Standard inhibitor Ketoconazole (Sigma K1003), and previously diluted compounds to plates was carried out by a liquid handling station (Zephyr Caliper). The plate was then preincubated at 37 °C for 5 min in a 100 μL volume, and reaction was initiated by the addition of a prewarmed enzyme/substrate (E/S) mix. The E/S mix contained buffer (KH2PO4), enzyme (CYP), substrate 7-benzyloxytrifluoromethyl coumarin (7-BFC), and dibenzylfluorescein (DBF) in a reaction volume of 200 μL. Reactions were terminated after various times depending on the substrate by addition of STOP solution (ACN/TrisHCl 0.5 M 80:20 (BFC) or 2 N NaOH for CYP3A4 (DBF). Fluorescence per well was measured using a fluorescence plate reader (Tecan M1000 pro) and percentage of inhibition was calculated.

Series [2] addresses T1, human sEH (hsEH) (Homo sapiens, UniProt P34913).
T1 sequence (P34913 1-555): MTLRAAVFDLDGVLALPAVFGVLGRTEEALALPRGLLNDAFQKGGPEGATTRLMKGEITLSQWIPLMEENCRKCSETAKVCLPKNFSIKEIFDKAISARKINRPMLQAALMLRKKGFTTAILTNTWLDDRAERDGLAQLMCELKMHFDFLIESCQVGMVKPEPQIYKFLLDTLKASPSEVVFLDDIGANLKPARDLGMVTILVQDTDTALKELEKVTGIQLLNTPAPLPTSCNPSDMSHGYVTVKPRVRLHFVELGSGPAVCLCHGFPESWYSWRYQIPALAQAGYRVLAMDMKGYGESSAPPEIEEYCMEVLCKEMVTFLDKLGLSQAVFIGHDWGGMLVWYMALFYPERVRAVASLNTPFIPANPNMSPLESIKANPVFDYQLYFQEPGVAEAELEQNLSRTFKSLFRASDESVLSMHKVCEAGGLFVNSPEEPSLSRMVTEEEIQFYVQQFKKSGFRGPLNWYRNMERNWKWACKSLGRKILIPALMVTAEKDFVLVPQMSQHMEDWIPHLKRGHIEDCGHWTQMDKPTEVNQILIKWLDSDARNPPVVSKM
In words: sEH inhibition, fluorescent-based assay (CMNPC substrate). The format is biochemical. To be noted: purified recombinant enzyme, average of three replicates. How it is done: (§1) The IC50 values reported herein were determined using a fluorescent-based assay (CMNPC as substrate).[16] The fluorescent assay was used with purified recombinant human, mouse, or rat sEH proteins. The enzymes were incubated at 30 °C with the inhibitors ([I]final = 0.4–100,000 nM) for 5 min in 100 mM sodium phosphate buffer (200 μL, pH 7.4) containing 0.1 mg/mL of BSA and 1% of DMSO. The substrate (CMNPC) was then added ([S]final = 5 μM). […] Results were obtained by regression analysis from a linear region of the curve.

Series [3] deals with T2, murine sEH (Mus musculus, UniProt P34914).
T2 sequence (P34914 1-554): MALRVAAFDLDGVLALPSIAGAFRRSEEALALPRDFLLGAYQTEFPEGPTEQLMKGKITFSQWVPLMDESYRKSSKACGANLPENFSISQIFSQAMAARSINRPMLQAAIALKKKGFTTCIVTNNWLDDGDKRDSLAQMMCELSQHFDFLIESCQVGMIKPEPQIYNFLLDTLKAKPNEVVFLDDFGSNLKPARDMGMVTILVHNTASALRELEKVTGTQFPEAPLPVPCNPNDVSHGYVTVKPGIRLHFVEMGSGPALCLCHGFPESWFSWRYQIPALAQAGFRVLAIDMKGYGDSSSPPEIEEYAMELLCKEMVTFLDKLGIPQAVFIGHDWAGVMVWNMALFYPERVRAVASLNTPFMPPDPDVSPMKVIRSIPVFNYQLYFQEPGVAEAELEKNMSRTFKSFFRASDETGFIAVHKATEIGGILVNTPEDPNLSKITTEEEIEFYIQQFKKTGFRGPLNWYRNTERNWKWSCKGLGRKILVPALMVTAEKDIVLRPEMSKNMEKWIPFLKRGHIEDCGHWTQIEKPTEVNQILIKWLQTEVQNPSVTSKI
Described as above. To be noted: purified recombinant enzyme, average of three replicates. The format is biochemical. As for the experimental part:
as §1

Series [4] has as its target T3, rat sEH (Rattus norvegicus, UniProt P80299).
T3 sequence (P80299 1-554): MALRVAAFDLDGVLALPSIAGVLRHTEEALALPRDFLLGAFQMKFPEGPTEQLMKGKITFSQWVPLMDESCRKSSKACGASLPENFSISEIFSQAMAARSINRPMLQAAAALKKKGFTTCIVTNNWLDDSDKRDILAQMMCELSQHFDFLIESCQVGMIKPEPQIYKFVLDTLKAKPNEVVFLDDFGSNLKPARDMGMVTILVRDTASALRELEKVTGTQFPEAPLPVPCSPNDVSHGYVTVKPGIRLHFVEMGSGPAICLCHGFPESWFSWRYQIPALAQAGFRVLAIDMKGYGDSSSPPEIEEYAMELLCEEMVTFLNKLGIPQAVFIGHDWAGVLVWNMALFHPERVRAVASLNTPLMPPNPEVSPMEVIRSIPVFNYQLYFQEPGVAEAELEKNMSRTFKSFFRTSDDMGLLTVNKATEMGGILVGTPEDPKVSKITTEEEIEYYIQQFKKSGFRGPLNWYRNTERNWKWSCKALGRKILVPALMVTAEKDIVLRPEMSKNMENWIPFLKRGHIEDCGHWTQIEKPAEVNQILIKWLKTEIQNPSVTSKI
Described as above. Format: biochemical. The conditions noted are these: purified recombinant enzyme, average of three replicates. As for the experimental part:
as §1

Sequence of CYP 3A4 (P08684 whole entry): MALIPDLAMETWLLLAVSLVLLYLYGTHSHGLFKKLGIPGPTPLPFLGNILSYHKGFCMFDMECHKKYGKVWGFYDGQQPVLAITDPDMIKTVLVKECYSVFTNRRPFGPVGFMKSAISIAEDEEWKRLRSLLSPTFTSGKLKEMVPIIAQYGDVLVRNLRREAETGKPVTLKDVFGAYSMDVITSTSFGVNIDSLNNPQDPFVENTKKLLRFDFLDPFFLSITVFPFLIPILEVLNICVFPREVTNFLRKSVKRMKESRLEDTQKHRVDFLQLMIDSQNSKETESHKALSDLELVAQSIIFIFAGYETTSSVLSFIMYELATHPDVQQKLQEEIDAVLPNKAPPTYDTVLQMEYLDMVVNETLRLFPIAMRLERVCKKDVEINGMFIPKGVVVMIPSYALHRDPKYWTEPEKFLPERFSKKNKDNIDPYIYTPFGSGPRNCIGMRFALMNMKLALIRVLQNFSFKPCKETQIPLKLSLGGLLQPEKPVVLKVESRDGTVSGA

Regarding `O=C(NC12CC3CC(Cl)(CC(C1)c1ccccc13)C2)N[C@H]1CC[C@H](Oc2ccc(C(=O)O)cc2)CC1` [Compound 22, 4-[((1r,4r)-4-(3-(9-Chloro-5,6,8,9,10,11-hexahydro-7H-5,9:7,11-dimethanobenzo[9]annulen-7-yl)ureido)cyclohexyl)oxy]benzoic Acid], in series [1], the “CYP 3A4 (BFC) inhibition” value came out at 1 ± 2% and the “CYP 3A4 (DBF) inhibition” value worked out at 52 ± 4%.
Usually IC50 stands for the concentration that inhibits the measured activity by half. For the compound `CC12CC3CC(NC(=O)N[C@H]4CC[C@H](Oc5ccc(C(=O)O)cc5)CC4)(CC(C1)c1ccccc13)C2` [Compound 20, 4-[((1r,4r)-4-(3-(9-Methyl-5,6,8,9,10,11-Hexahydro-7H-5,9:7,11-dimethanobenzo[9]annulen-7-yl)ureido)cyclohexyl)oxy]benzoic Acid], the results for the IC50 in series [2], in series [3] and in series [4] were 0.9 nM, 9.9 nM and 0.4 nM, respectively. In addition, the “CYP 3A4 (BFC) inhibition” value in series [1] is reported as 2 ± 2%. Also, the “CYP 3A4 (DBF) inhibition” value in series [1] came out at 14 ± 1%.
As for `O=C(NC12CC3CC(F)(CC(C1)c1ccccc13)C2)N[C@H]1CC[C@H](Oc2ccc(C(=O)O)cc2)CC1` [Compound 23, 4-[((1r,4r)-4-(3-(9-Fluoro-5,6,8,9,10,11-hexahydro-7H-5,9:7,11-dimethanobenzo[9]annulen-7-yl)ureido)cyclohexyl)oxy]benzoic Acid], the values for the half-maximal inhibitory concentration (IC50) in series [2], in series [3] and in series [4] were 0.5 nM, 0.5 nM and 0.4 nM, respectively.
